Experimental data from ChEMBL document CHEMBL1136247, “Alpha-keto amides as inhibitors of histone deacetylase” (Bioorg Med Chem Lett, 2003).

What was measured:
HT-1080 = test: Compound was tested for inhibition of proliferation of HT1080 cells; format: functional, cell-based; conditions: Homo sapiens
[1] = biological target: Histone deacetylase (HDAC1 and HDAC2) (Homo sapiens, UniProt Q13547+Q92769); test: Inhibitory activity against mixture of histone deacetylase 1 (HDAC1) and histone deacetylase 2 (HDAC2) from nuclear extraction of K562 erythroleukemia cells.
MDA-MB-435 = test: Compound was tested for inhibition of proliferation of MDA-435 cells; format: functional, cell-based; conditions: Homo sapiens

| SMILES | IC50 (HT-1080) | IC50 [1] | IC50 (MDA-MB-435) |
| --- | --- | --- | --- |
| CNC(=O)C(=O)CCCCCCC(=O)Nc1nc(-c2ccc(CCN(C)C)cc2)cs1 | 120 nM | 3.1 nM | 160 nM |
| CNC(=O)C(=O)CCCCCCC(=O)Nc1cccc(Oc2ccccc2)c1 | 35000 nM | 1041 nM | 39000 nM |
| CNC(=O)C(=O)CCCCCCC(=O)Nc1nc(-c2ccncc2)cs1 | 670 nM |  | 2000 nM |
| CNC(=O)C(=O)CCCCCCS(=O)(=O)c1ccc(-c2ccccc2)cc1 |  | 143 nM |  |
| CNC(=O)C(=O)CCCCCCC(=O)Nc1cccc(-c2ccccc2)c1 |  | 3.7 nM |  |
| CNC(=O)C(=O)CCCCCCC(=O)Nc1nc2ccccc2s1 | 13000 nM | 133 nM | 14000 nM |
| CNC(=O)C(=O)CCCCCCC(=O)Nc1nc(-c2ccc3c(c2)CCCC3)cs1 | > 50000 nM | 1.4 nM | > 50000 nM |
| CNC(=O)C(=O)CCCCCCC(=O)Nc1cnc2ccccc2c1 | 2900 nM | 9.5 nM | 4000 nM |
| CNC(=O)C(=O)CCCCCCC(=O)Nc1ccccc1 |  | 338 nM |  |
| O=C(O)C(=O)CCCCCCOc1ccc(-c2ccccc2)cc1 |  | 3.7 nM |  |
| CNC(=O)C(=O)CCCCCO/N=C\c1ccc(-c2ccccc2)cc1 |  | 853 nM |  |
| CNC(=O)C(=O)CCCCCCC(=O)Nc1ccc2ccccc2c1 | 17000 nM | 9.4 nM | 22000 nM |
| CNC(=O)C(=O)C#CCCCCOc1ccc(-c2ccccc2)cc1 |  | > 1000 nM |  |
| COC(=O)C(=O)CCCCCCCOc1ccc(-c2ccccc2)cc1 |  | 0.109 nM |  |
| CNC(=O)C(=O)CCCCCCSc1ccc(-c2ccccc2)cc1 |  | 526 nM |  |
| COC(=O)C(=O)CCCCCCOc1ccc(-c2ccccc2)cc1 |  | 0.062 nM |  |
| CNC(=O)C(=O)CCCCCCNS(=O)(=O)c1ccc(-c2ccccc2)cc1 |  | 241 nM |  |
| CNC(=O)C(=O)COCCCCOc1ccc(-c2ccccc2)cc1 |  | > 10000 nM |  |
| CNC(=O)C(=O)CCCCCCC(=O)Nc1ccc(-c2ccccc2)cc1 |  | 201 nM |  |
| CN(C)C(=O)C(=O)CCCCCCOc1ccc(-c2ccccc2)cc1 |  | > 5 nM |  |
| CCNC(=O)C(=O)CCCCCCOc1ccc(-c2ccccc2)cc1 |  | 4.9 nM |  |
| NC(=O)C(=O)CCCCCCOc1ccc(-c2ccccc2)cc1 |  | > 50 nM |  |
| O=C(O)CNC(=O)C(=O)CCCCCCOc1ccc(-c2ccccc2)cc1 |  | > 50 nM |  |
| CNC(=O)C(=O)CCCCCCOc1ccc(-c2ccccc2)cc1 |  | 0.11 nM |  |
| CN(C)CCNC(=O)C(=O)CCCCCCOc1ccc(-c2ccccc2)cc1 |  | > 50 nM |  |
| CNC(=O)C(=O)CCCCCCC(=O)Nc1ccc2cc[nH]c2c1 | 3400 nM | 18 nM | 4500 nM |
| CNC(=O)C(=O)CCCCCCC(=O)Nc1nc(-c2ccc(OC)cc2)cs1 | 2700 nM | 9.1 nM | 5800 nM |
| COC(=O)C(=O)CCCCCOc1ccc(-c2ccccc2)cc1 |  | 0.082 nM |  |
| CNC(=O)C(=O)CCCCCCC(=O)Nc1nc(-c2ccccc2)cs1 | 1200 nM | 11 nM | 3100 nM |
| CNC(=O)C(=O)CCCCCCNC(=O)c1cccc(-c2ccccc2)c1 |  | 21 nM |  |
